Reference: PubChem BioAssay (NCI)
Values joined by “and” are separate entries in the source; they are usually repeats but may differ in a detail not shown here. Equal entries are not always repeated.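 48-hour exposure; five concentrations; linearly interpolated endpoints. At the GI50, growth is halved. TGI: concentration producing complete growth inhibition.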

Legend:
Assay in all cases: NCI anticancer screen, dose series, 48 h
UACC-62 melanoma = tested on: UACC-62 melanoma
SNB-75 CNS = tested on: SNB-75 CNS
KM12 colon = tested on: KM12 colon
SW-620 colon = tested on: SW-620 colon
COLO 205 colon = tested on: COLO 205 colon
IGROV1 ovarian = tested on: IGROV1 ovarian
OVCAR-8 ovarian = tested on: OVCAR-8 ovarian
MALME-3M melanoma = tested on: MALME-3M melanoma
M14 melanoma = tested on: M14 melanoma
EKVX NSCLC = tested on: EKVX NSCLC

SMILES | GI50 (UACC-62 melanoma) | TGI (UACC-62 melanoma) | GI50 (SNB-75 CNS) | TGI (SNB-75 CNS) [µM] | GI50 (KM12 colon) | TGI (KM12 colon) | GI50 (SW-620 colon) | TGI (SW-620 colon) | GI50 (COLO 205 colon) | TGI (COLO 205 colon) | GI50 (IGROV1 ovarian) | TGI (IGROV1 ovarian) | GI50 (OVCAR-8 ovarian) | TGI (OVCAR-8 ovarian) | GI50 (MALME-3M melanoma) | TGI (MALME-3M melanoma) | GI50 (M14 melanoma) | TGI (M14 melanoma) | GI50 (EKVX NSCLC) | TGI (EKVX NSCLC)
CN1CCN(CCCOC(=O)c2c3c(n4ccccc24)C(=O)c2ncccc2C3=O)CC1 | < 0.01 µM | 0.0324 µM | < 0.0142 µM | 0.105 | 0.0669 µM | 13.8 µM | < 0.01 µM | 0.0385 µM | < 0.0332 µM | 1.17 µM | < 0.0194 µM | 4.71 µM | < 0.011 µM | 11.9 µM | 0.0265 µM | 1.14 µM | < 0.0149 µM | 0.253 µM | 0.0456 µM | 12.6 µM
CCOc1ccc2c(c1)[n+]([O-])c(-c1ccccc1)c(N)[n+]2[O-] |  | > 100 µM |  | > 100 |  | > 100 µM |  | > 100 µM |  | 81.8 µM |  | > 100 µM |  | > 100 µM |  | > 100 µM |  | > 100 µM |  | > 100 µM
O=S(=O)(c1ccccc1)N1CCC1c1ccccc1 (stereo not given) |  | > 100 µM |  | > 100 |  | > 100 µM |  | > 100 µM |  | > 100 µM |  | > 100 µM |  | > 100 µM |  | > 100 µM |  | > 100 µM |  | > 100 µM
O=C1c2ccccc2C(=O)N1C/C=N/NS(=O)(=O)c1cccc([N+](=O)[O-])c1 |  | > 100 µM |  | > 100 |  | > 100 µM |  | > 100 µM |  | > 100 µM |  | > 100 µM |  | > 100 µM |  | > 100 µM |  | > 100 µM |  | > 100 µM
[O-]c1ccccc1C=NCCN=Cc1ccccc1[O-].[O]=[U+2]=[O] | 37.4 µM | > 74.3 µM | 22.9 µM | 70.2 | 57.1 µM | > 100 µM | > 100 µM | > 100 µM | > 51.8 µM | > 85.1 µM | 26.1 µM | 61.6 µM | 31.2 µM | > 94.6 µM | 39.7 µM | > 63.5 µM | 40.9 µM | > 85.8 µM | 61.5 µM | > 100 µM
CC[C@@H]1C(=O)N(C)c2cnc(Nc3ccc(C(=O)NC4CCC(N5CCN(CC6CC6)CC5)CC4)cc3OC)nc2N1C(C)C (stereo not given in full) | 0.0356 µM and 0.0388 µM | > 8.3 µM and 13.3 µM | 0.0296 µM and 0.0344 µM | 6.73 | 0.0069 µM and < 0.01 µM | > 10 µM and 8.15 µM | 0.00561 µM and 0.0102 µM | > 10 µM and 11.1 µM | 0.00438 µM and < 0.01 µM | 0.276 µM and 0.268 µM | 0.0418 µM and 0.0524 µM | > 10 µM and 7.22 µM | 0.0242 µM and 0.033 µM | > 10 µM and 1.65 µM | 0.607 µM and 1.39 µM | > 4.91 µM and 3.08 µM | 0.00963 µM and 0.0349 µM | > 3.81 µM and 2.39 µM | 0.0749 µM and 0.234 µM | > 10 µM and 21.6 µM
N#CSc1c[nH]c2ccc(/C=C/C(=O)/C=C(O)/C=C/c3ccc4[nH]cc(SC#N)c4c3)cc12 | 2.11 µM | 7.11 µM | 3.1 µM | 21.4 | 1.66 µM | 5.47 µM | 0.668 µM | 2.35 µM | 1.55 µM | 3.7 µM | 1.19 µM | 8.41 µM | 2.46 µM | > 100 µM | 2.22 µM | 5.91 µM | 0.864 µM | 3.58 µM | 1.97 µM | 10.7 µM
CCN(CC)CC(C(=O)Nc1c(C)cccc1C)/C(C)=N\NC(=S)NN (stereo not given) |  | > 100 µM |  | > 100 |  | > 100 µM |  | > 100 µM |  | > 100 µM |  | > 100 µM |  | > 100 µM |  | > 100 µM |  | > 100 µM |  | > 100 µM
CSC(=Nc1ccc([N+](=O)[O-])cc1C#N)NC(=O)c1ccccc1 |  | > 100 µM |  | > 100 |  | > 100 µM |  | > 100 µM |  | > 100 µM |  | > 100 µM |  | > 100 µM |  | > 100 µM |  | > 100 µM |  | > 100 µM
Clc1cccc(-c2cc(-c3ccc4c(c3)OCCO4)[nH]n2)c1 | 2 µM | 44.8 µM | 2.24 µM | 34.8 | 1.01 µM | 38.5 µM | 1.09 µM | 44.9 µM | 1.42 µM | 30.1 µM | 2.47 µM | 36.7 µM | 6.74 µM | 53.3 µM | 5.22 µM | 47.5 µM | 1.49 µM | 35.3 µM | 11.5 µM | 45.6 µM
CCN(CC)C(=O)c1cccc2c(OC)ccc(OC)c12 |  | > 100 µM |  | > 100 |  | > 100 µM |  | > 100 µM |  | > 100 µM |  | > 100 µM |  | > 100 µM |  | > 100 µM |  | > 100 µM |  | > 100 µM
CS(=O)(=O)N(CCC#N)c1ccc(/C=C2\N=C(c3ccccc3Cl)OC2=O)cc1 |  | > 100 µM |  | > 100 |  | > 100 µM |  | > 100 µM |  | > 100 µM |  | > 100 µM |  | > 100 µM |  | > 100 µM |  | > 100 µM |  | > 100 µM
